Results reported in patent US11286243B2 (GLOBAL BLOOD THERAPEUTICS, INC., priority 2018, dated 2022).

The compounds below were run against T1, human ferroportin (Homo sapiens, UniProt Q9NP59) (assay: In-vitro ferroportin internalization assay (luciferase reporter)). Settings: average pEC50; stably-transfected CHO cell line expressing human ferroportin tagged to a luciferase reporter; 6 h incubation with test compounds.
T1 construct: luciferase reporter (probably NanoLuc: read with the Nano-Glo Luciferase Assay System); expressed in transfected cells; host or cells: CHO cells, stably transfected, doxycycline-inducible expression
T1 sequence (Q9NP59 1-571): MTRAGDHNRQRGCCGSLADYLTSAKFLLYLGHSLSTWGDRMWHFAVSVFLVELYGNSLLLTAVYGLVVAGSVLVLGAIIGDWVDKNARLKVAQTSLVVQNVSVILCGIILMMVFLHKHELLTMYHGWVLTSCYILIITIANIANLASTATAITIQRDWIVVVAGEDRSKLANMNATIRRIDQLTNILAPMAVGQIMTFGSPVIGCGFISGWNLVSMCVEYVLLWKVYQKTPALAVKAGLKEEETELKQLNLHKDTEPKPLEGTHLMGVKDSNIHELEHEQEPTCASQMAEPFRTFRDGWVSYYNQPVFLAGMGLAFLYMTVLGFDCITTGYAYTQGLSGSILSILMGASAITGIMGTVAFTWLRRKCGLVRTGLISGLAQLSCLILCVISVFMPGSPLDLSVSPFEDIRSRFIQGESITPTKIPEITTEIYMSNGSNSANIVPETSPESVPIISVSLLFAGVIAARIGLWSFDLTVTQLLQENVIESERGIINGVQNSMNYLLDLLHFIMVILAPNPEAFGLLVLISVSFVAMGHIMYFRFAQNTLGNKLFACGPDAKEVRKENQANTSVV
Type: cell-based
Method: The protocol for this assay is generally as described in WO2018/128828, incorporated herein by reference in its entirety. Functional internalization of ferroportin protein was measured using a stably-transfected CHO cell line expressing the human ferroportin tagged to a luciferase reporter. Cells were plated for 24 h in the presence of ferric ammonium citrate (FAC). Ferroportin protein expression was induced with doxycycline for 24 h. The next day, the compounds were added. Test compounds were dissolved in DMSO. Cells were incubated with the test compounds for 6 h, and subsequently luciferase activity was measured using the Nano-Glo Luciferase Assay System and Glomax (Promega, Madison, Wis.).
The average pEC50 was determined for the test compounds.

Compared with `Fc1cccnc1CNc1ncnc2sc(CC3CCCC(Cc4nc5ccccc5[nH]4)N3)nc12` (centres unmarked) [Compound 71, 2-({6-[(1H-1,3-benzodiazol-2-yl)methyl]piperidin-2-yl}methyl)-N-[(3-fluoropyridin-2-yl)methyl]-[1,3]thiazolo[5,4-d]pyrimidin-7-amine], `CN(CCc1nc2ccccc2[nH]1)CCc1nc2c(NCc3ncccc3F)ncnc2s1` [Compound 10, 2-(2-{[2-(1H-1,3-benzodiazol-2-yl)ethyl](methyl)amino}ethyl)-N-[(3-fluoropyridin-2-yl)methyl]-[1,3]thiazolo[5,4-d]pyrimidin-7-amine] is higher in pEC50: 5.2 for the first, 5.7 for the second.

First: COC(=O)c1ccc2[nH]c(CCNCCc3nc4c(NCc5ncccc5F)ncnc4s3)nc2c1 [Compound 27, Methyl 2-(2-{[2-(7-{[(3-fluoropyridin-2-yl)methyl]amino}-[1,3]thiazolo[5,4-d]pyrimidin-2-yl)ethyl]amino}ethyl)-1H-1,3-benzodiazole-5-carboxylate]
Second: Fc1ccc2[nH]c(CCNCCc3nc4c(NCc5ncccc5F)ncnc4s3)nc2c1 [Compound 3, 2-(2-{[2-(5-fluoro-1H-1,3-benzodiazol-2-yl)ethyl]amino}ethyl)-N-[(3-fluoropyridin-2-yl)methyl]-[1,3]thiazolo[5,4-d]pyrimidin-7-amine]
The pEC50 of the first is lower: 6.2 for the first, 7.1 for the second.

First: [N-]=[N+]=Nc1cccnc1CNc1ncnc2sc(CCNCCc3nc4cc(I)ccc4[nH]3)nc12 [Compound 32, N-[(3-azidopyridin-2-yl)methyl]-2-(2-{[2-(5-iodo-1H-1,3-benzodiazol-2-yl)ethyl]amino}ethyl)-[1,3]thiazolo[5,4-d]pyrimidin-7-amine]
Second: Cc1cccnc1CNc1ncnc2sc(CCNCCc3nc4ccccc4[nH]3)nc12 [Compound 12, 2-(2-{[2-(1H-1,3-benzodiazol-2-yl)ethyl]amino}ethyl)-N-[(3-methylpyridin-2-yl)methyl]-[1,3]thiazolo[5,4-d]pyrimidin-7-amine]
The pEC50 of the first is lower: 6.9 for the first, 7.3 for the second.

First: C[C@H](CNCCc1nc2c(NCc3ncccc3F)ncnc2s1)c1nc2ccccc2[nH]1 [Compound 52, 2-(2-{[(2R)-2-(1H-1,3-benzodiazol-2-yl)propyl]amino}ethyl)-N-[(3-fluoropyridin-2-yl)methyl]-[1,3]thiazolo[5,4-d]pyrimidin-7-amine]
Second: CC(CNCCc1nc2c(NCc3ncccc3F)ncnc2s1)c1nc2ccccc2[nH]1 (centres unmarked) [Compound 41, 2-(2-{[2-(1H-1,3-benzodiazol-2-yl)propyl]amino}ethyl)-N-[(3-fluoropyridin-2-yl)methyl]-[1,3]thiazolo[5,4-d]pyrimidin-7-amine]
The pEC50 of the first is lower: 6.6 for the first, 7.2 for the second.

First: Cc1nc(NCc2ncccc2F)c2nc(CCNCCc3nc4ccccc4[nH]3)sc2n1 [Compound 31, 2-(2-{[2-(1H-1,3-benzodiazol-2-yl)ethyl]amino}ethyl)-N-[(3-fluoropyridin-2-yl)methyl]-5-methyl-[1,3]thiazolo[5,4-d]pyrimidin-7-amine]
Second: Oc1nc(NCc2ncccc2F)c2nc(CCNCCc3nc4ccccc4[nH]3)oc2n1 [Compound 36, 2-(2-{[2-(1H-1,3-benzodiazol-2-yl)ethyl]amino}ethyl)-7-{[(3-fluoropyridin-2-yl)methyl]amino}-[1,3]oxazolo[5,4-d]pyrimidin-5-ol]
The pEC50 of the first is lower: 5.6 for the first, 6.4 for the second.

Compared with `Cc1nc(CCNCCc2nc3c(NCc4ncccc4F)nc(O)nc3s2)[nH]c1C` [Compound 76, 2-(2-{[2-(4,5-dimethyl-1H-imidazol-2-yl)ethyl]amino}ethyl)-7-{[(3-fluoropyridin-2-yl)methyl]amino}-[1,3]thiazolo[5,4-d]pyrimidin-5-ol], `Fc1cccnc1CNc1ncnc2sc(CCNCCc3nc4cnccc4[nH]3)nc12` [Compound 37, N-[(3-fluoropyridin-2-yl)methyl]-2-{2-[(2-{1H-imidazo[4,5-c]pyridin-2-yl}ethyl)amino]ethyl}-[1,3]thiazolo[5,4-d]pyrimidin-7-amine] is lower in pEC50: 8.1 for the first, 5.6 for the second.

Going from `OC(CNCCc1nc2c(NCc3ncccc3F)ncnc2s1)c1nc2ccccc2[nH]1` (centres unmarked) [Compound 50, 1-(1H-1,3-benzodiazol-2-yl)-2-{[2-(7-{[(3-fluoropyridin-2-yl)methyl]amino}-[1,3]thiazolo[5,4-d]pyrimidin-2-yl)ethyl]amino}ethan-1-ol] to `CC(CNCCc1nc2ccccc2[nH]1)c1nc2c(NCc3ncccc3F)ncnc2s1` (centres unmarked) [Compound 24, 2-(1-{[2-(1H-1,3-benzodiazol-2-yl)ethyl]amino}propan-2-yl)-N-[(3-fluoropyridin-2-yl)methyl]-[1,3]thiazolo[5,4-d]pyrimidin-7-amine], the pEC50 rises from 5.1 to 5.8.

Compared with `Fc1cccnc1CNc1nccc2oc(CCNCCc3nc4ccccc4[nH]3)nc12` [Compound 13, 2-(2-{[2-(1H-1,3-benzodiazol-2-yl)ethyl]amino}ethyl)-N-[(3-fluoropyridin-2-yl)methyl]-[1,3]oxazolo[4,5-c]pyridin-4-amine], `Fc1cccnc1CNc1ncnc2oc(CCNCCc3nc4ccccc4[nH]3)nc12` [Compound 2, 2-(2-{[2-(1H-1,3-benzodiazol-2-yl)ethyl]amino}ethyl)-N-[(3-fluoropyridin-2-yl)methyl]-[1,3]oxazolo[5,4-d]pyrimidin-7-amine] is lower in pEC50: 8 for the first, 7.3 for the second.

First: c1ccc(CNc2ncnc3sc(CCNCCc4nc5ccccc5[nH]4)nc23)cc1 [Compound 4, 2-(2-{[2-(1H-1,3-benzodiazol-2-yl)ethyl]amino}ethyl)-N-benzyl-[1,3]thiazolo[5,4-d]pyrimidin-7-amine]
Second: Fc1ccc(CNc2ncnc3sc(CCNCCc4nc5ccccc5[nH]4)nc23)nc1 [Compound 8, 2-(2-{[2-(1H-1,3-benzodiazol-2-yl)ethyl]amino}ethyl)-N-[(5-fluoropyridin-2-yl)methyl]-[1,3]thiazolo[5,4-d]pyrimidin-7-amine]
The pEC50 of the first is higher: 6.6 for the first, 6.4 for the second.

Going from `Fc1cccnc1CNc1nccc2oc(C(F)(F)CNCCc3nc4ccccc4[nH]3)nc12` [Compound 81, 2-(2-{[2-(1H-1,3-benzodiazol-2-yl)ethyl]amino}-1,1-difluoroethyl)-N-[(3-fluoropyridin-2-yl)methyl]-[1,3]oxazolo[4,5-c]pyridin-4-amine] to `Fc1cccnc1CNc1nccc2oc([C@@H](F)CNCCc3nc4ccccc4[nH]3)nc12` [Compound 75, 2-[(1 S)-2-{[2-(1H-1,3-benzodiazol-2-yl)ethyl]amino}-1-fluoroethyl]-N-[(3-fluoropyridin-2-yl)methyl]-[1,3]oxazolo[4,5-c]pyridin-4-amine], the pEC50 rises from 6.3 to 7.1.

Going from `O=C(CCC1(CCc2cn(CCCNC(=O)c3ccc4c(c3)C3(OC4=O)c4ccc(O)cc4Oc4cc(O)ccc43)nn2)N=N1)Nc1ccc2[nH]c(CCNCCc3nc4c(NCc5ncccc5F)ncnc4s3)nc2c1` [Compound 47, N-[3-(4-{2-[3-(2-{[2-(2-{[2-(7-{[(3-fluoropyridin-2-yl)methyl]amino}-[1,3]thiazolo[5,4-d]pyrimidin-2-yl)ethyl]amino}ethyl)-1H-1,3-benzodiazol-5-yl]carbamoyl}ethyl)-3H-diazirin-3-yl]ethyl}-1H-1,2,3-triazol-1-yl)propyl]-3′,6′-dihydroxy-3-oxo-3H-spiro[2-benzofuran-1,9′-xanthene]-6-carboxamide] to `Fc1cccc(-c2cnc(CCNCCc3nc4c(NCc5ncccc5F)ncnc4s3)[nH]2)c1` [Compound 67, 2-[2-({2-[5-(3-fluorophenyl)-1H-imidazol-2-yl]ethyl}amino)ethyl]-N-[(3-fluoropyridin-2-yl)methyl]-[1,3]thiazolo[5,4-d]pyrimidin-7-amine], the pEC50 rises from 5.8 to 6.2.

`Fc1cccnc1CNc1ncnc2sc(C3(F)CN(CCc4nc5ccccc5[nH]4)C3)nc12` [Compound 25, 2-{1-[2-(1H-1,3-benzodiazol-2-yl)ethyl]-3-fluoroazetidin-3-yl}-N-[(3-fluoropyridin-2-yl)methyl]-[1,3]thiazolo[5,4-d]pyrimidin-7-amine] and `Fc1cccnc1CNc1ncnc2sc(CCNCCc3ncc(-c4ccc(Cl)s4)[nH]3)nc12` [Compound 72, 2-[2-({2-[5-(5-chlorothiophen-2-yl)-1H-imidazol-2-yl]ethyl}amino)ethyl]-N-[(3-fluoropyridin-2-yl)methyl]-[1,3]thiazolo[5,4-d]pyrimidin-7-amine] are within 0.2 log units of each other in pEC50: 6.3 for the first, 6.4 for the second.

In the case of `O=C(NCc1ccc2[nH]c(CCNCCc3nc4c(NCc5ncccc5F)ncnc4s3)nc2c1)c1ccc2c(c1)C1(OC2=O)c2ccc(O)cc2Oc2cc(O)ccc21` [Compound 80], the pEC50 is reported as <5.
For `Cc1nc(Cc2ccccc2)c(CNCCc2nc3c(NCc4ncccc4F)nccc3o2)[nH]1` [Compound 78, 2-(2-{[(4-benzyl-2-methyl-1H-imidazol-5-yl)methyl]amino}ethyl)-N-[(3-fluoropyridin-2-yl)methyl]-[1,3]oxazolo[4,5-c]pyridin-4-amine], the pEC50 was <5.
